Experimental findings from US20130102595A1 (Curis, Inc., priority 2011, published 2013) are described below.

The target in data set [1] is T1, PI3Kα (p110α/p85α) (Homo sapiens, UniProt P42336).
T1 construct: GST (N); made in house; host or cells: Baculovirus-infected Sf9 cells
The data set can be described thus: PI3Kα ADP-Glo assay. Format: biochemical. To be noted: 20 μM PIP2, 10 μM ATP, 30 minutes. The essentials:
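Recombinant full-length human GST-p110α/His-p85α, co-expressed in Sf9 cells, was incubated 30 min at room temperature with 20 μM PIP2 and 10 μM ATP. The buffer was 50 mM HEPES pH 7.4, 150 mM NaCl, 5 mM MgCl2, 1 mM DTT, 3 µM orthovanadate and 0.5% DMSO. ADP formed was detected by ADP-Glo luminescence.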

Data set [2] deals with HDACs (HeLa cell nuclear extracts). Briefly: HDAC enzymatic activity, Biomol Color de Lys system. Format: biochemical. To be noted: 1 hour, 25° C. In a few lines: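 HeLa nuclear extract incubated with serially diluted compound and […] artificial substrate in 50 mM Tris/Cl pH 8.0, 137 mM NaCl, 2.7 mM KCl, 1 mM MgCl2. Run 1 h at 25 °C, stopped with developer. Fluorescence read (ex 350-380, em 440-460 nm); IC50 from sigmoidal dose-response fit.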

SMILES strings stand for the structures. Some results are limits rather than exact numbers.

T1 sequence (P42336 whole entry): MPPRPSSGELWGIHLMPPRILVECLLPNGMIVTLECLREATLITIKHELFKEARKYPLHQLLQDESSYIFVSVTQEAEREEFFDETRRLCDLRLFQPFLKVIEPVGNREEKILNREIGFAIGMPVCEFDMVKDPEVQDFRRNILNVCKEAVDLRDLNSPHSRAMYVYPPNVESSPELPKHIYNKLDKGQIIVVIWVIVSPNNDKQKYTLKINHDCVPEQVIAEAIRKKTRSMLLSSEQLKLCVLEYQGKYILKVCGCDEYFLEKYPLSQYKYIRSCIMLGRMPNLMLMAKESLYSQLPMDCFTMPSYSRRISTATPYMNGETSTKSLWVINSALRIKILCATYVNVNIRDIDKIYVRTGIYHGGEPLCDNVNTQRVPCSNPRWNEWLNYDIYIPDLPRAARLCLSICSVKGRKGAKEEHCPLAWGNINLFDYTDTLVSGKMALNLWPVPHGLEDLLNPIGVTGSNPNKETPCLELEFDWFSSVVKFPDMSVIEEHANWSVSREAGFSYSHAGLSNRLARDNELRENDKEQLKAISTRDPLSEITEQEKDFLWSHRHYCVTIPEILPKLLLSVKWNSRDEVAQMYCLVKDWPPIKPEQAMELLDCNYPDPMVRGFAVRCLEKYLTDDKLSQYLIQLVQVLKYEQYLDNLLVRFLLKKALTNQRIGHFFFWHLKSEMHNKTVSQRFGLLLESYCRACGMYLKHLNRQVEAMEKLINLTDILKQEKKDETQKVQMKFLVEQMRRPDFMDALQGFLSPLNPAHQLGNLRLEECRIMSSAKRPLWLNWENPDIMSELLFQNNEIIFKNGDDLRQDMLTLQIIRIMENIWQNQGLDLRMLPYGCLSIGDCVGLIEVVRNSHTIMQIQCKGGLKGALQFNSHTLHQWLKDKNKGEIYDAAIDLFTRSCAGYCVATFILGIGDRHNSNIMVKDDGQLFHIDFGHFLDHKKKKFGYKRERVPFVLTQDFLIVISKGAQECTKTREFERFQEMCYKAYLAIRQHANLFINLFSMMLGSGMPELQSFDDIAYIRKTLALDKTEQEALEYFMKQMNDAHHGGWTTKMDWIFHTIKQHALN
T1 sequence (P27986 whole entry partner): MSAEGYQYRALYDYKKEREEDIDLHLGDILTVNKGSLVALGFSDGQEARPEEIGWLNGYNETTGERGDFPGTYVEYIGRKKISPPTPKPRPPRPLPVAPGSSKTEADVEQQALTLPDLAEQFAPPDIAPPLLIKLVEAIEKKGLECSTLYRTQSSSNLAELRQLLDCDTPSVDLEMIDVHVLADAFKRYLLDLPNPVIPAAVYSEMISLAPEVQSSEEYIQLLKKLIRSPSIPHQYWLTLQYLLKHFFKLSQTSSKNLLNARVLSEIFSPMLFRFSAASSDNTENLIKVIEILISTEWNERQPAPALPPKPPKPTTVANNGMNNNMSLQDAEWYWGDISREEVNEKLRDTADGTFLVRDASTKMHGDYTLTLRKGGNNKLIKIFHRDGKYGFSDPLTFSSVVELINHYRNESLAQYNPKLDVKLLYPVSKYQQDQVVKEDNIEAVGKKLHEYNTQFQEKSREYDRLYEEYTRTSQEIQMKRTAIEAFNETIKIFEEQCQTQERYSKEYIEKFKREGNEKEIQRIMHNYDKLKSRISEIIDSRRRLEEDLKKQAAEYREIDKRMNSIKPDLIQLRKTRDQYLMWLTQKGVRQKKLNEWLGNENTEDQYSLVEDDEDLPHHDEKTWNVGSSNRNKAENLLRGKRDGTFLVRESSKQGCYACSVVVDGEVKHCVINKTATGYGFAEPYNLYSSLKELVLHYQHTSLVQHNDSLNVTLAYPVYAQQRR

On to `Cc1ccc(-c2nc(N3CCOCC3)c3sc(CN(C)c4ncc(C(=O)NO)cn4)cc3n2)cc1` [Compound 201, N-hydroxy-2-(methyl((4-morpholino-2-p-tolylthieno[3,2-d]pyrimidin-6-yl)methyl)amino)pyrimidine-5-carboxamide], for which the melting point (as a rule, the temperature of the solid-liquid transition) is 170 to 172 °C. Further, the IC50 – broadly, the concentration at which inhibition is half-maximal – in data set [1] fell in the range of 100 to 1000 nM. Moreover, the IC50 in data set [2] was less than 100 nM.
The matching figures for `CN(Cc1cc2nc(-c3ccc(C(F)(F)F)cc3)nc(N3CCOCC3)c2s1)c1ncc(C(=O)NO)cn1` [Compound 202, N-hydroxy-2-(methyl((4-morpholino-2-(4-(trifluoromethyl)phenyl)thieno[3,2-d]pyrimidin-6-yl)methyl)amino)pyrimidine-5-carboxamide]: 222 to 223 °C, 100 to 1000 nM and less than 100 nM.
The matching figures for `Nc1ccc(-c2nc(N3CCOCC3)c3sc(CNc4ncc(C(=O)NO)cn4)cc3n2)cc1` [Compound 211, 2-((2-(4-aminophenyl)-4-morpholinothieno[3,2-d]pyrimidin-6-yl)methylamino)-N-hydroxypyrimidine-5-carboxamide]: 217 to 223 °C, 100 to 1000 nM and less than 100 nM.
In turn, `Nc1ncc(-c2nc(N3CCOCC3)c3sc(NS(=O)(=O)c4ccc(/C=C/C(=O)NO)cc4)cc3n2)cn1` [Compound 217, (E)-3-(4-(N-(2-(2-aminopyrimidin-5-yl)-4-morpholinothieno[3,2-d]pyrimidin-6-yl)sulfamoyl)phenyl)-N-hydroxyacrylamide] displayed a melting point of more than 300 °C. In data set [1], this compound had an IC50 of less than 100 nM. This compound also displayed an IC50 in data set [2] of less than 100 nM.
In turn, `Nc1ncc(-c2nc(N3CCOCC3)c3sc(NS(=O)(=O)c4cccc(/C=C/C(=O)NO)c4)cc3n2)cn1` [Compound 218, (E)-3-(3-(N-(2-(2-aminopyrimidin-5-yl)-4-morpholinothieno[3,2-d]pyrimidin-6-yl)sulfamoyl)phenyl)-N-hydroxyacrylamide] displayed a melting point of more than 300 °C. For the same compound, in data set [1], the IC50 is less than 100 nM. In data set [2], this compound registered an IC50 of less than 100 nM.
For the compound `COc1ccc(-c2nc(N3CCOCC3)c3sc(NS(=O)(=O)c4cccc(/C=C/C(=O)NO)c4)cc3n2)cn1` [Compound 221, (E)-N-hydroxy-3-(3-(N-(2-(6-methoxypyridin-3-yl)-4-morpholinothieno[3,2-d]pyrimidin-6-yl)sulfamoyl)phenyl)acrylamide], the melting point is more than 300 °C. The IC50 in data set [1] is less than 100 nM. For the same compound, the IC50 in data set [2] is less than 100 nM.
The compound `COc1ccc(-c2nc(N3CCOCC3)c3sc(NS(=O)(=O)c4ccc(/C=C/C(=O)NO)cc4)cc3n2)cn1` [Compound 222, N-Hydroxy-3-{4-[2-(6-methoxy-pyridin-3-yl)-4-morpholin-4-yl-thieno[3,2-d]pyrimidin-6-ylsulfamoyl]-phenyl}-acrylamide] came in with a melting point of more than 300 °C. The same compound had an IC50 in data set [1] of 100 to 1000 nM. In data set [2], this compound displayed an IC50 of less than 100 nM.
In turn, `Nc1ncc(-c2nc(N3CCOCC3)c3sc(NCCCC(=O)NO)cc3n2)cn1` [Compound 225, 4-(2-(2-aminopyrimidin-5-yl)-4-morpholinothieno[3,2-d]pyrimidin-6-ylamino)-N-hydroxybutanamide] had a melting point of 220 to 230 °C. In data set [1], this compound showed an IC50 of less than 100 nM. Moreover, the IC50 in data set [2] was 1000 to 10000 nM.
Consider `Nc1ncc(-c2nc(N3CCOCC3)c3sc(NCCCCC(=O)NO)cc3n2)cn1` [Compound 226], for which the melting point was in the range of 175 to 180 °C. Also, the IC50 in data set [1] was less than 100 nM. This compound also displayed an IC50 in data set [2] of less than 100 nM.
The compound `CNc1ncc(-c2nc(N3CCOCC3)c3sc(NCCCCC(=O)NO)cc3n2)cn1` [Compound 227, N-Hydroxy-5-(2-(2-(methylamino)pyrimidin-5-yl)-4-morpholinothieno[3,2-d]pyrimidin-6-ylamino)pentanamide] had a melting point of 206 to 210 °C. Moreover, in data set [1], the IC50 was less than 100 nM. In data set [2], this compound displayed an IC50 of less than 100 nM.
`Cc1ncc(-c2nc(N3CCOCC3)c3sc(NCCCCC(=O)NO)cc3n2)cn1` [Compound 229, N-Hydroxy-5-(2-(2-methylpyrimidin-5-yl)-4-morpholinothieno[3,2-d]pyrimidin-6-ylamino)pentanamide] showed a melting point of 248 to 252 °C. Besides, the IC50 in data set [1] was less than 100 nM. The same compound registered an IC50 in data set [2] of less than 100 nM.
Compound `Nc1ncc(-c2nc(N3CCOCC3)c3sc(NCCCCCC(=O)NO)cc3n2)cn1` [Compound 232, 6-[2-(2-Amino-pyrimidin-5-yl)-4-morpholin-4-yl-thieno[3,2-d]pyrimidin-6-ylamino]-hexanoic acid hydroxyamide] displayed a melting point of 220 to 225 °C. In addition, in data set [1], the concentration for half-maximal inhibition (IC50) was less than 100 nM. Moreover, in data set [2], the IC50 is less than 100 nM.
For the compound `COc1ccc(-c2nc(N3CCOCC3)c3sc(NCCCCCC(=O)NO)cc3n2)cn1` [Compound 233, 6-[2-(6-Methoxy-pyridin-3-yl)-4-morpholin-4-yl-thieno[3,2-d]pyrimidin-6-ylamino]-hexanoic acid hydroxyamide], the melting point lay within 125 to 130 °C. The compound further came in with an IC50 in data set [1] of less than 100 nM. Besides, in data set [2], the half-inhibitory concentration (IC50) is less than 100 nM.
On to `Nc1ncc(-c2nc(N3CCOCC3)c3sc(NCCCCCCC(=O)NO)cc3n2)cn1` [Compound 234, 7-[2-(2-Amino-pyrimidin-5-yl)-4-morpholin-4-yl-thieno[3,2-d]pyrimidin-6-ylamino]-heptanoic acid hydroxyamide], for which the melting point lay in the range of 235 to 240 °C. This compound came in with an IC50 in data set [1] of less than 100 nM. The compound also registered an IC50 in data set [2] of less than 100 nM.
`CNc1ccc(-c2nc(N3CCOCC3)c3sc(C(C)N(C)c4ncc(C(=O)NO)cn4)cc3n2)cn1` (stereo not drawn) [Compound 237, N-Hydroxy-2-(methyl(1-(2-(6-(methylamino)pyridin-3-yl)-4-morpholinothieno[3,2-d]pyrimidin-6-yl)ethyl)amino)pyrimidine-5-carboxamide]: the melting point was 270 to 275 °C. The compound further came in with an IC50 in data set [1] of less than 100 nM. The IC50 in data set [2] is less than 100 nM.
`CNc1ccc(-c2nc(N3CCOCC3)c3sc(C(C)(C)Nc4ncc(C(=O)NO)cn4)cc3n2)cn1` [Compound 240, N-Hydroxy-2-(2-(2-(6-(methylamino)pyridin-3-yl)-4-morpholinothieno[3,2-d]pyrimidin-6-yl)propan-2-ylamino)pyrimidine-5-carboxamide] registered a melting point of 200 to 205 °C. This compound also showed an IC50 in data set [1] of less than 100 nM. The compound also had an IC50 in data set [2] of less than 100 nM.
For the compound `COc1ccc(-c2nc(N3CCOCC3)c3sc(C(C)(C)N(C)c4ncc(C(=O)NO)cn4)cc3n2)cn1` [Compound 251, N-Hydroxy-2-((2-(2-(6-methoxypyridin-3-yl)-4-morpholinothieno[3,2-d]pyrimidin-6-yl)propan-2-yl)(methyl)amino)pyrimidine-5-carboxamide], the melting point was in the range of 175 to 178 °C. The same compound had an IC50 in data set [1] of 1000 to 10000 nM. This compound showed an IC50 in data set [2] of less than 100 nM.
On the same counts, the results for `COc1ccc(-c2nc(N3CCOCC3)c3sc(S(=O)(=O)Nc4ncc(C(=O)NO)cn4)cc3n2)cn1` [Compound 252, 2-[2-(6-Methoxy-pyridin-3-yl)-4-morpholin-4-yl-thieno[3,2-d]pyrimidine-6-sulfonylamino]-pyrimidine-5-carboxylic acid hydroxyamide] are 259 to 265 °C, less than 100 nM and less than 100 nM.
The matching figures for `CCOc1ccc(-c2nc(N3CCOCC3)c3sc(CN(C)c4ncc(C(=O)NO)cn4)cc3n2)cn1` [Compound 255, 2-(((2-(6-ethoxypyridin-3-yl)-4-morpholinothieno[3,2-d]pyrimidin-6-yl)methyl)(methyl)amino)-N-hydroxypyrimidine-5-carboxamide]: 162 to 165 °C, less than 100 nM and less than 100 nM.
As for `CN(C)CCOc1ccc(-c2nc(N3CCOCC3)c3sc(CN(C)c4ncc(C(=O)NO)cn4)cc3n2)cn1` [Compound 257, 2-(((2-(6-(2-(Dimethylamino)ethoxy)pyridin-3-yl)-4-morpholinothieno[3,2-d]pyrimidin-6-yl)methyl)(methyl)amino)-N-hydroxypyrimidine-5-carboxamide], the melting point is 140 to 143 °C. Also, in data set [1], the IC50 was more than 10000 nM. This compound also showed an IC50 in data set [2] of less than 100 nM.
On to `CNCCOc1ccc(-c2nc(N3CCOCC3)c3sc(CN(C)c4ncc(C(=O)NO)cn4)cc3n2)cn1` [Compound 258, N-Hydroxy-2-(methyl((2-(6-(2-(methylamino)ethoxy)pyridin-3-yl)-4-morpholinothieno[3,2-d]pyrimidin-6-yl)methyl)amino)pyrimidine-5-carboxamide], for which the melting point lay in the range of 170 to 175 °C. For the same compound, the IC50 in data set [1] is more than 10000 nM. In addition, in data set [2], the IC50 was less than 100 nM.
On the same counts, the results for `CN(Cc1cc2nc(-c3ccc(OCCN)nc3)nc(N3CCOCC3)c2s1)c1ncc(C(=O)NO)cn1` [Compound 259, 2-(((2-(6-(2-Aminoethoxy)pyridin-3-yl)-4-morpholinothieno[3,2-d]pyrimidin-6-yl)methyl)(methyl)amino)-N-hydroxypyrimidine-5-carboxamide] are 110 to 115 °C, more than 10000 nM and less than 100 nM.
The matching figures for `COc1ncc(-c2nc(N3CCOCC3)c3sc(C(C)N(C)c4ncc(C(=O)NO)cn4)cc3n2)cn1` (stereo not drawn) [Compound 262, N-Hydroxy-2-((1-(2-(2-methoxypyrimidin-5-yl)-4-morpholinothieno[3,2-d]pyrimidin-6-yl)ethyl)(methyl)amino)pyrimidine-5-carboxamide]: 210 to 215 °C, less than 100 nM and less than 100 nM.
